Reference: ChEMBL document CHEMBL1124625, “Flavones. 2. Synthesis and structure-activity relationship of flavodilol and its analogues, a novel class of antihypertensive agents with catecholamine depleting properties” (J Med Chem, 1989)

Legend:
[1] = tested on: Rattus norvegicus; experiment: % decrease in heart norepinephrine in anesthetized spontaneously hypertensive rats(SHR) at 5 hours after administration of 75 mg/kg dose perorally; type: functional; conditions: route oral
[2] = tested on: Rattus norvegicus; experiment: % decrease in hypothalamus norepinephrine in anesthetized spontaneously hypertensive rats(SHR) at 5 hours after administration of 150 mg/kg dose perorally; type: functional; conditions: route oral
[3] = tested on: Rattus norvegicus; experiment: Systolic blood pressure (SBP) in anesthetized spontaneously hypertensive rats (SHR) before administration of 75 mg/kg dose perorally.; type: functional; design: unit: mmHg; conditions: route oral
[4] = tested on: Rattus norvegicus; experiment: % decrease in heart norepinephrine in anesthetized spontaneously hypertensive rats(SHR) at 5 hours after administration of 150 mg/kg dose perorally; type: functional; conditions: route oral
[5] = tested on: Rattus norvegicus; experiment: % decrease in systolic blood pressure (SBP) in anesthetized spontaneously hypertensive rats(SHR) after administration of 75 mg/kg dose perorally; conditions: route oral
[6] = tested on: Rattus norvegicus; experiment: % decrease in hypothalamus DA in anesthetized spontaneously hypertensive rats(SHR) at 5 hours after administration of 75 mg/kg dose perorally; *value significantly different was control.; conditions: route oral
[7] = tested on: Rattus norvegicus; experiment: % decrease in systolic blood pressure (SBP) in anesthetized spontaneously hypertensive rats(SHR) after administration of 150 mg/kg dose perorally; conditions: route oral
[8] = tested on: Rattus norvegicus; experiment: % decrease in heart 5-HT in anesthetized spontaneously hypertensive rats(SHR) at 5 hours after administration of 75 mg/kg dose perorally; type: functional; conditions: route oral
[9] = tested on: Rattus norvegicus; experiment: % decrease in hypothalamus DA in anesthetized spontaneously hypertensive rats(SHR) at 5 hours after administration of 150 mg/kg dose perorally; conditions: route oral
[10] = tested on: Rattus norvegicus; experiment: % decrease in hypothalamus norepinephrine in anesthetized spontaneously hypertensive rats(SHR) at 5 hours after administration of 75 mg/kg dose perorally; type: functional; conditions: route oral
[11] = tested on: Rattus norvegicus; experiment: Systolic blood pressure (SBP) in anesthetized spontaneously hypertensive rats(SHR) at 7.5 hours after administration of 75 mg/kg dose perorally; NS is not statistically significant.
[12] = tested on: Rattus norvegicus; experiment: % decrease in heart 5-HT in anesthetized spontaneously hypertensive rats(SHR) at 5 hours after administration of 150 mg/kg dose perorally; type: functional; conditions: route oral
[13] = tested on: Rattus norvegicus; experiment: Systolic blood pressure (SBP) in anesthetized spontaneously hypertensive rats(SHR) before administration of 65 mg/kg dose perorally; type: functional; conditions: route oral
[14] = tested on: Rattus norvegicus; experiment: Systolic blood pressure (SBP) in anesthetized spontaneously hypertensive rats(SHR) at 7.5 hours after administration of 65 mg/kg dose perorally; NS is not statistically significant.

Structure (SMILES)	Decrease [1]	Decrease [2]	Systolic blood pressure [3]	Decrease [4]	% decrease SBP [5]	% decrease hypothalamus DA [6]	% decrease SBP [7]	Decrease [8]	% decrease hypothalamus DA [9]	Decrease [10]	Decrease in Systolic blood pressure [11]	Decrease [12]	Systolic blood pressure [13]	Decrease in Systolic blood pressure [14]
CN(C)CC(O)COc1ccc2c(=O)cc(-c3ccccc3)oc2c1 (centres undefined)	18%	37%	207	7%	0%	29%	5%	0%	47%	20%	Not significant	0%	–	–
CC(C)NCC(O)COc1ccc2c(=O)cc(-c3ccc(N)cc3)oc2c1 (centres undefined)	–	–	–	–	–	–	–	–	–	–	–	–	206	Not significant
